In patent US20120028887A1, “L[…] HIV-1” (priority 2009, published 2012):
Residues, ends and D or L forms follow the SMILES beside them. No end group written: not given here. *: point of attachment. Palmitoyl = CCCCCCCCCCCCCCCC(=O)*; C16 = C16 lipid

Experiments:
[1] = system: Jurkat E6-1 cells and Jurkat HXBc2 cells expressing HIV-1 HXBc2 Rev and ENV proteins; assay type: cell-based; details: for IC50: read-out: IC50 in cell-cell fusion inhibition assay; for IC50 (nM) In cell-cell fusion assay: Table 4
Procedure: Jurkat E6-1 cells were from Dr. Arthur Weiss (Weiss A et al. 1984, J. Immunol. 133; 123-8), and Jurkat HXBc2 (4) cells expressing HIV-1 HXBc2 Rev and ENV proteins were from Dr. Joseph Sodroski (Cao, J. et al. 1996, J. Virol. 70; 1340-54). Cells were cultured every 3 to 4 days, and maintained in RPMI-1640 supplemented with the appropriate antibiotics at 37° C. with 5% CO2 in a humidified incubator. For ENV expression, Jurkat HXBc2 (4) cells were transferred to medium without tetracycline three days prior to the experiments. […] Cell-Cell Fusion Inhibition Assay—The protocol utilizing Jurkat E6-1 and Jurkat HXBc2 cells for a cell-cell fusion assay was previously described (Huerta L. et al. 2002, Cytometry, 47; 100-6. In short, Jurkat E6-1 and Jurkat HXBc2 cells were labeled with DiI and DiD lypophilic fluorescent probes, respectively. The two cell populations were co-incubated for 6 h in a ratio of 1:1 in the presence of different concentrations of the inhibitory peptides. Cells that co-incubated without the presence of peptides served as an optimal fusion reference. Unlabeled cells that were handled similarly served as an intrinsic fluorescence control. Cells labeled separately with DiI or DiD were used to compensate for the optimal separation of fluorescent signals. Jurkat HXBc2 cells labeled with DiI were co-incubated with Jurkat HXBc2 cells labeled with DiD for a fusion background that was subtracted from the measurements of the experiment. The following alterations were applied to the original protocol: (i) 5 ul of a 1 mg/ml DiI or DiD solution in dimethylsulfoxide (DMSO) was added to 1 ml of 5×10^6 cells/ml Jurkat E6-1 or Jurkat HXBc2 cells, respectively. (ii) Data from 150,000 events for each sample were collected on FACSort, upgraded to a FACSCalibur cell analyzer (Becton Dickinson), and further analyzed. Fitting of the data points was performed according to the equation derived from Hills' equation:

HIV-1LAI = details: blocked infection of target cells; cited from earlier work
HIV-1 HXB2 = assay type: cell-based; details: Table 5
Procedure: For the fitting, we uploaded the X and Y values of the raw data (after subtracting the background) into a nonlinear least squares regression (curve fitter) program that provided the IC50 value (A of the equation), as well as the c value. Virus Infectivity Assay—Fully infectious HIV-1 HXB2 concentrated virus stock was a kind gift of the AIDS Vaccine Program, SAIC. Experiments were done according to a P3 biological safety level. The infectivity of HIV-1 HXB2 was determined using the TZM-bl cell line as a reporter. Cells were added (2×10^4 cells/well) to a 96-well clear-bottomed microtiter plate with 10% serum supplemented Dulbecco's modified eagle medium (DMEM). Plates were incubated at 37° C. for 18-24 hours to allow the cells to adhere. The media was then aspirated from each well and replaced with serum free DMEM containing 40 micrograms/mL DEAE-dextran. […] Luciferase activity was analyzed using the Steady-Glo Luciferase assay kit (Promega, Madison Wis.). […] IC50 Values were calculated from the fitted curve similarly to the cell-cell fusion assay. […] The eight different possible combinations (triple, NBD, DiI, DiD, NBD+DiI, NBD+DiD, DiI+DiD, no label) were defined in the analysis software and the percentage of each one was calculated. The percentage of NBD labeling (peptide) on all cell types in relation to all available labeled cells in the system was calculated. […]

Work on `CC[C@H](C)[C@H](NC(=O)CNC(=O)[C@@H](N)CO)C(=O)N[C@@H](CC(=O)O)C(=O)N[C@@H](CCC(N)=O)C(=O)N[C@@H](CCC(=O)O)C(=O)N[C@@H](CCC(N)=O)C(=O)N[C@@H](CC(N)=O)C(=O)N[C@@H](CC(N)=O)C(=O)N[C@@H](CC(C)C)C(=O)N[C@H](C(=O)N[C@@H](CCCNC(=N)N)C(=O)N[C@@H](CC(C)C)C(=O)N[C@H](C(=O)N[C@@H](CCC(=O)O)C(=O)N[C@@H](C)C(=O)N[C@@H](CCC(N)=O)C(=O)N[C@H](C(=O)N[C@@H](Cc1c[nH]cn1)C(=O)N[C@@H](CCC(=O)O)C(=O)N[C@@H](CC(C)C)C(=O)N[C@@H](CCC(N)=O)C(=O)N[C@@H](CC(C)C)C(=O)N[C@H](C(=O)N[C@@H](CCC(N)=O)C(=O)N[C@@H](Cc1c[nH]c2ccccc12)C(=O)N[C@@H](CCCCN)C(=O)N[C@H](C(=O)N[C@@H](CCCCN)C(=O)N[C@@H](CCC(N)=O)C(=O)N[C@@H](CC(C)C)C(=O)N[C@@H](CC(C)C)C(=O)N[C@@H](C)C(=O)N[C@@H](CCCNC(=N)N)C(=O)N[C@H](C(=O)N[C@@H](CC(C)C)C(=O)N[C@@H](CCCCN)C(N)=O)[C@@H](C)CC)[C@@H](C)CC)[C@@H](C)O)[C@@H](C)CC)[C@@H](C)CC)[C@@H](C)O` [N36 MUTe,g, reference compound] (H-SGIDQEQNNLTRLIEAQIHELQLTQWKIKQLLARILK-NH2; N-terminus assumed) yielded an IC50 [1] of 0.936 ± 0.036 µM.
`CCCCCCCCCCCCCCCC(=O)NCCCC[C@H](NC(=O)[C@H](CC(C)C)NC(=O)[C@@H](NC(=O)[C@H](CCCNC(=N)N)NC(=O)[C@H](C)NC(=O)[C@H](CC(C)C)NC(=O)[C@H](CC(C)C)NC(=O)[C@H](CCC(N)=O)NC(=O)[C@H](CCCCN)NC(=O)[C@@H](NC(=O)[C@H](CCCCN)NC(=O)[C@H](Cc1c[nH]c2ccccc12)NC(=O)[C@H](CCC(N)=O)NC(=O)[C@@H](NC(=O)[C@H](CC(C)C)NC(=O)[C@H](CCC(N)=O)NC(=O)[C@H](CC(C)C)NC(=O)[C@H](CCC(=O)O)NC(=O)[C@H](Cc1c[nH]cn1)NC(=O)[C@@H](NC(=O)[C@H](CCC(N)=O)NC(=O)[C@H](C)NC(=O)[C@H](CCC(=O)O)NC(=O)[C@@H](NC(=O)[C@H](CC(C)C)NC(=O)[C@H](CCCNC(=N)N)NC(=O)[C@@H](NC(=O)[C@H](CC(C)C)NC(=O)[C@H](CC(N)=O)NC(=O)[C@H](CC(N)=O)NC(=O)[C@H](CCC(N)=O)NC(=O)[C@H](CCC(=O)O)NC(=O)[C@H](CCC(N)=O)NC(=O)[C@H](CC(=O)O)NC(=O)[C@@H](NC(=O)CNC(=O)[C@@H](N)CO)[C@@H](C)CC)[C@@H](C)O)[C@@H](C)CC)[C@@H](C)CC)[C@@H](C)O)[C@@H](C)CC)[C@@H](C)CC)C(N)=O` [N36 MUTe,g-C16] (H-SGIDQEQNNLTRLIEAQIHELQLTQWKIKQLLARILK(Palmitoyl)-NH2) showed an IC50 [1] of 0.0088 ± 0.004 µM.
In the case of “RQLLSGIDQEQNNLTRLIEAQIHELQ [Sh-RQLL-Mut e,g]”, the “IC50 (nM) In cell-cell fusion assay” value [1] is reported as “Not active”.
In the case of enfuvirtide, the “EC50 against HIV-1LAI” value (HIV-1LAI) is given as 0.5 ng/mL.
In the case of `CCCCCCCCCCCCCCCC(=O)N[C@@H](CO)C(=O)NCC(=O)N[C@H](C(=O)N[C@@H](CC(=O)O)C(=O)N[C@@H](CCC(N)=O)C(=O)N[C@@H](CCC(=O)O)C(=O)N[C@@H](CCC(N)=O)C(=O)N[C@@H](CC(N)=O)C(=O)N[C@@H](CC(N)=O)C(=O)N[C@@H](CC(C)C)C(=O)N[C@H](C(=O)N[C@@H](CCCNC(=N)N)C(=O)N[C@@H](CC(C)C)C(=O)N[C@H](C(=O)N[C@@H](CCC(=O)O)C(=O)N[C@@H](C)C(=O)N[C@@H](CCC(N)=O)C(=O)N[C@H](C(=O)N[C@@H](Cc1c[nH]cn1)C(=O)N[C@@H](CCC(=O)O)C(=O)N[C@@H](CC(C)C)C(=O)N[C@@H](CCC(N)=O)C(=O)N[C@@H](CC(C)C)C(=O)N[C@H](C(=O)N[C@@H](CCC(N)=O)C(=O)N[C@@H](Cc1c[nH]c2ccccc12)C(=O)N[C@@H](CCCCN)C(=O)N[C@H](C(=O)N[C@@H](CCCCN)C(=O)N[C@@H](CCC(N)=O)C(=O)N[C@@H](CC(C)C)C(=O)N[C@@H](CC(C)C)C(=O)N[C@@H](C)C(=O)N[C@@H](CCCNC(=N)N)C(=O)N[C@H](C(=O)N[C@@H](CC(C)C)C(=O)N[C@@H](CCCCN)C(N)=O)[C@@H](C)CC)[C@@H](C)CC)[C@@H](C)O)[C@@H](C)CC)[C@@H](C)CC)[C@@H](C)O)[C@@H](C)CC` [C16-N36 MUTe,g] (Palmitoyl-SGIDQEQNNLTRLIEAQIHELQLTQWKIKQLLARILK-NH2), the IC50 [1] is reported as 0.162 ± 0.004 µM.
For “SGIVQQLNNQLRAEEANQHLEQLSVWGSKQNQARRLK(δ-NH) [N36 MUTa,d, reference compound]”, the “IC50 in cell-cell fusion inhibition assay” value [1] was “inactive” and the “IC50 nM” value ([1]; cell-cell fusion assay, Table 3, N36 mutated peptides) was “Not active”.
In the case of `CCCCCCCCCCCCCCCC(=O)NCCCC[C@H](NC(=O)[C@H](CCC(N)=O)NC(=O)[C@H](CC(C)C)NC(=O)[C@H](CCC(=O)O)NC(=O)[C@H](Cc1c[nH]cn1)NC(=O)[C@@H](NC(=O)[C@H](CCC(N)=O)NC(=O)[C@H](C)NC(=O)[C@H](CCC(=O)O)NC(=O)[C@@H](NC(=O)[C@H](CC(C)C)NC(=O)[C@H](CCCNC(=N)N)NC(=O)[C@@H](NC(=O)[C@H](CC(C)C)NC(=O)[C@H](CC(N)=O)NC(=O)[C@H](CC(N)=O)NC(=O)[C@H](CCC(N)=O)NC(=O)[C@H](CCC(=O)O)NC(=O)[C@H](CCC(N)=O)NC(=O)[C@H](CC(=O)O)NC(=O)[C@@H](NC(=O)CNC(=O)[C@H](CO)NC(=O)[C@H](CC(C)C)NC(=O)[C@H](CC(C)C)NC(=O)[C@H](CCC(N)=O)NC(=O)[C@@H](N)CCCNC(=N)N)[C@@H](C)CC)[C@@H](C)O)[C@@H](C)CC)[C@@H](C)CC)C(N)=O` [Sh-RQLL-Mut e,g-C16] (H-RQLLSGIDQEQNNLTRLIEAQIHELQK(Palmitoyl)-NH2; N-terminus assumed), the “IC50 (nM) In cell-cell fusion assay” value [1] is reported as “Not active”.
With HQTLSGIDQEQNNLTRLIEAQIHELQ [Sh-Mut e,g] the “IC50 (nM) In cell-cell fusion assay” value [1] was “Not active” and the “IC50 (nM) In virus-cell fusion assay” value (HIV-1 HXB2) was “Not active”.
With “HQTLSGIDQEQNNLTRLIEAQIHELQ-C16 [Sh-Mut e,g-C16]” the “IC50 (nM) In cell-cell fusion assay” value [1] was “Not active”.
With “C16-RQLLSGIDQEQNNLTRLIEAQIHELQ (C16-RQLLSGIDQEQNNLTRLIEAQIHELQ-NH2) [C16-Sh-RQLL-Mut e,g]” the “IC50 (nM) In cell-cell fusion assay” value [1] was “Not active”.
In the case of “C16-HQTLSGIDQEQNNLTRLIEAQIHELQ (C16-HQTLSGIDQEQNNLTRLIEAQIHELQ-NH2) [C16-Sh-Mut e,g]”, the “IC50 (nM) In cell-cell fusion assay” value [1] is reported as “Not active” and the IC50 (HIV-1 HXB2; read-out: IC50 (nM) In virus-cell fusion assay) is reported as 643 ± 137 nM.
